Measured values taken from patent EP3981864A1, “DETERGENT COMPOSITION” (priority 2020, dated 2022).

Target: T1, Oryza sativa αDOX (SEQ ID NO: 1), fatty acid alpha-dioxygenase, Q9M5J1, N-terminal His-tag variant SEQ ID NO: 249 (Oryza sativa subsp. japonica, UniProt Q2QRV3)
T1 construct: made in house; host or cells: Escherichia coli BL21 (DE3), pET30a
T1 sequence (Q2QRV3 1-618): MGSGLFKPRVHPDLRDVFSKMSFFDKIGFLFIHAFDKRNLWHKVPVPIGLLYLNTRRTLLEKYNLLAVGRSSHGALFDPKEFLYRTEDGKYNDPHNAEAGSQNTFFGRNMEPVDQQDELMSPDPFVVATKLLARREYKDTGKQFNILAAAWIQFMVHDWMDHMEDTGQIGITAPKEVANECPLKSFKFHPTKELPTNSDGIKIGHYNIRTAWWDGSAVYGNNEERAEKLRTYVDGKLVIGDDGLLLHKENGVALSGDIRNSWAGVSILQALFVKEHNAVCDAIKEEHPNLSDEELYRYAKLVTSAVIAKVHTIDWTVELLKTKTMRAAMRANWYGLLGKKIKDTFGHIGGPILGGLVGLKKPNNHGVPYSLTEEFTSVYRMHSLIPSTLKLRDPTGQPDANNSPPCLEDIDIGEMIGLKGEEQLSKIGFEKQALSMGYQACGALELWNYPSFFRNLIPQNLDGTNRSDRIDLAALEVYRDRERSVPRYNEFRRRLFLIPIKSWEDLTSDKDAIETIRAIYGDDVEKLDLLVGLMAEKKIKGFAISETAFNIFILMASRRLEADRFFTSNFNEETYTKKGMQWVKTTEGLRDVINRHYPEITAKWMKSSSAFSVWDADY
Test: Alpha-dioxygenase activity assay (oxygen consumption, TON)
Format: biochemical
Details: fatty acid 100 µM, enzyme 6 ppm, 50 mM HEPES pH 9.0, 37°C; initial rate of oxygen consumption / enzyme concentration
Source text: Oryza sativa αDOX (SEQ ID NO: 1) is a fatty acid alpha-dioxygenase that converts fatty acids into the corresponding 2-hydroperoxy fatty acids and is included as an example of the present invention. A codon optimized gene (SEQ ID NO: 248) encoding for an alpha-dioxygenase variant (SEQ ID NO: 249), including an N-terminal amino acid sequence containing a His-tag was designed and synthesized by Genscript. After gene synthesis, the protein was expressed and purified. In brief, the complete synthetic gene sequence was subcloned into a pET30a vector using the NdeI/HindIII cloning sites. For heterologous expression, Escherichia coli BL21 (DE3) cells were transformed with the recombinant plasmid and a single colony was inoculated into LB medium containing kanamycin (50 mg/L). A pre-starter culture was then inoculated into flasks containing Magic Media (Thermo Fisher, Catalog # K6803) supplemented with kanamycin (50 mg/L) and incubated at 16 °C for 72 h. At an OD600nm = 0.5 - 1.0, 5-aminolevulinic acid (final concentration 0.5 mM) was added. Cells were harvested by centrifugation at 5000 rpm and 4°C and the pellet was lysed using a bacterial cell lysis buffer (B-PER - Themo Fisher, Waltham, MA). After centrifugation, the supernatant was collected, and the protein was purified by one-step purification using HisPur™ Ni-NTA Spin Columns (Thermo Scientific, Catalog # 88226) and standard protocols known in the art. The protein was concentrated using a 10 kDa MW cutoff Amicon Ultra centrifugal filter unit (Millipore Sigma, Catalog# UFC901024), followed by desalting using a disposable PD-10 desalting column (GE Healthcare Life Sciences, Catalog# 17085101) and a buffer containing 50 mM Tris-HCl, 500 mM NaCl, and 10% Glycerol at pH 8.0. […]
Reactions with alpha-dioxygenases were performed as follows. […] The reaction was incubated for up to 10 minutes at 37°C with 200 rpm agitation and the conversion was monitored using an oxygen sensor. The TON (in s-1) were calculated as the ratio between the initial rate of oxygen consumption (in µM/s) and the concentration of enzyme (in µM). […]

CCCCCCCC/C=C\CCCCCCCC(=O)O [Oleic Acid]
Oleic Acid, TON: 5.54 s⁻¹

CCCCCCCCCCCCCCCC(=O)O [Palmitic Acid]
Palmitic Acid, TON: 20.58 s⁻¹

CCCCCCCCCCCCCCCCCC(=O)O [Stearic Acid]
Stearic Acid, TON: 8.02 s⁻¹
